The values that follow come from US11225675B2, “D-lactate dehydrogenase, engineered strain containing D-lactate dehydrogenase and construction method and use of engineered strain” (Shanghai Jiao Tong University, priority 2017, dated 2022).

The target in series [1] is T1, D-lactate dehydrogenases LdhTi (Thermodesulfatator indicus, UniProt F8A9V0). Nature of the series: Enzymatic characteristic identification (substrate spectrum) of D-lactate dehydrogenase LdhTi, NADH/NAD at 340 nm. In kind it is biochemical. The note with it: for whether LdhTi catalyzes the substrate (in words) / Km / kcat: 50 mM phosphate buffer pH 7.0, 0.2 mM NADH or NAD+, 37° C.; for Km / kcat: substrate of purified LdhTi, “—” = enzyme has no activity for the substrate. The method, then:
A reaction system is consisting of: 50 mM phosphate buffer solution (pH 7.0), 0.2 mM NADH or NAD^+ as coenzyme, a suitable amount of D-lactate dehydrogenases LdhTi and substrates with different concentrations, reacted at 37° C. An enzyme activity determination method is to determine oxidization of NADH or reduction of NAD at ultraviolet wavelength of 340 nm, wherein one enzyme activity unit is defined as the enzyme amount needed for oxidizing or reducing 1 μmoL NADH or NAD in one minute.

Substrate in series [2]: O=C(O)C(=O)Cc1ccccc1
Briefly: purified protein, by the assay type. The note with it: other: substrate of purified LdhTi, 50 mM phosphate buffer pH 7.0, 0.2 mM NADH or NAD+, 37° C., “—” = enzyme has no activity for the substrate.

Substrate in series [3]: CC(=O)C(=O)O
Nature of the series: Enzymatic characteristic identification (substrate spectrum) of D-lactate dehydrogenase LdhTi, NADH/NAD at 340 nm. In kind it is biochemical, Thermodesulfatator indicus. The note with it: other: substrate of purified LdhTi, 50 mM phosphate buffer pH 7.0, 0.2 mM NADH or NAD+, 37° C., “—” = enzyme has no activity for the substrate.

Substrate in series [4]: C[C@@H](O)C(=O)O
Described as above. In kind it is biochemical, Thermodesulfatator indicus. The note with it: other: substrate of purified LdhTi, 50 mM phosphate buffer pH 7.0, 0.2 mM NADH or NAD+, 37° C., “—” = enzyme has no activity for the substrate.

The target in series [5] is T1, D-lactate dehydrogenases LdhTi. Nature of the series: Determination of the optimal reaction pH value of D-lactate dehydrogenases LdhTi. The note with it: 37° C., 20 mM pyruvic acid, 0.2 mM NADH, pH range 3.0-11.0, FIG. 3. In kind it is biochemical. The method, then:
An enzyme activity determination method is to determine change in NADH at ultraviolet wavelength of 340 nm, and one enzyme activity unit is defined as the enzyme amount needed for oxidizing 1 μmoL of NADH in one minute. At 37° C., by using 20 mM pyruvic acid as a substrate and 0.2 mM NADH as a coenzyme, the change of enzyme activity of the D-lactate dehydrogenase within a pH range of 3.0-11.0 was determined. A buffer system is consisting of: 50 mM citric acid-sodium citrate buffer solution with pH of 3.0-7.0; 50 mM phosphate buffer solution with pH of 7.0-9.0; and 50 mM sodium carbonate-sodium hydrogen carbonate buffer solution with pH of 9.0-11.0. Experiments were repeated thrice. […] Relative enzyme activities in FIG. 3 are relative enzyme activities, which are obtained by: determining enzyme activities at different pH values, and correspondingly converting the enzyme activity values at other pH values on the basis that the highest value at pH 6.0 is 100%.

Series [6] has the same target. Briefly: Determination of the optimal reaction temperature of D-lactate dehydrogenases LdhTi. In kind it is biochemical. The note with it: 20 mM pyruvic acid, 0.2 mM NADH, 20 mM phosphate buffer pH 7.0, 30° C. to 100° C., FIG. 4. The method, then:
An enzyme activity determination method is to determine change in NADH at ultraviolet wavelength of 340 nm, and one enzyme activity unit is defined as the enzyme amount needed for oxidizing 1 μmoL of NADH in one minute. Conditions for determination of the optimal reaction temperature of D-lactate dehydrogenases were as follows: 20 mM pyruvic acid as a substrate, 0.2 mM NADH as a coenzyme and 20 mM phosphate buffer solution (pH 7.0) system are adopted; and enzyme activities from 30° C. to 100° C. were respectively determined, and experiments were repeated thrice. […] Relative enzyme activities in FIG. 4 are relative enzyme activities, which are obtained by: determining enzyme activities at different temperature conditions, and correspondingly converting the enzyme activity values at other temperature conditions on the basis that the highest value at 70° C. is 100%.

`O=C(O)CC(=O)C(=O)O` [Oxaloacetic Acid, oxaloacetic acid]: in series [1], the “whether LdhTi catalyzes the substrate (in words)” value was “can catalyze”; the Km – broadly, the substrate concentration at which the rate is half of its maximum – came to 1320 ± 50 µM; the kcat – broadly, the maximal rate divided by the concentration of active sites – is 4.473 ± 0.0983 s⁻¹.
As for `C[C@@H](O)C(=O)O` [D-lactic Acid, D-lactic acid], the “whether LdhTi catalyzes the substrate (in words)” value in series [1] is “can catalyze”.
Regarding `O=CC(=O)O` [Glyoxylic Acid, glyoxylic acid], in series [1], the “whether LdhTi catalyzes the substrate (in words)” value is recorded as “can catalyze”, the Km amounted to 1760 ± 80 µM and the kcat turned out to be 2.297 ± 0.0517 s⁻¹.
Take `CC(=O)C(=O)O` [Pyruvic Acid, pyruvic acid]: in series [1], the “whether LdhTi catalyzes the substrate (in words)” value is “can catalyze”. For the same molecule, the “catalytic efficiency of LdhTi for the substrate (in words)” value in series [1] (compared among the tested substrates) is “highest catalytic efficiency”.
Take `O=C(O)C(O)CO` (centres unmarked) [Glyceric Acid, glyceric acid]: in series [1], the “whether LdhTi catalyzes the substrate (in words)” value is recorded as “no activity”.
Still for that read-out and setting: the result for `C[C@H](O)C(=O)O` [L-lactic Acid, L-lactic acid] reads “no activity”.
The same measure, in the same setting: with `O=C(O)C(=O)Cc1ccccc1` [Phenylpyruvic Acid, phenylpyruvic acid] the entry was “can catalyze”.

B1: D-lactate dehydrogenases LdhTi (Thermodesulfatator indicus DSM 15286) (protein)
chain: MKVIFFSMHPYEEEFLGPILPSDWDVEMTPDFLDETTVEKAKGAQVVSLFVSDKADGPVLEALHSYGVGLLALRSAGYDHIDIETAKRLGIKVVNVPAYSPHAIADHTLAIMLALIRRLHRAHDKVRLGDFDLDGLMGFDLNGKVAGVIGLGKIGRLVATRLKAFGCKVLGYDPYIQPEIVENVDLDTLITQADIISIHCPLTRENFHMFNEETFKRMKPGAILVNTARGGLIDTKALLEALKSGKLGGAALDVYEYERGLFFKNHQKEGIKDPYLAQLLGLANVVLTGHQAFLTREAVKNIEETTVENILEWQKNPQAKLKNEI
For the molecule B1, in series [2], the Km was 4580 ± 240 µM; the kcat was 0.295 s⁻¹; the kcat/Km (in general, the turnover number divided by the Michaelis constant) turned out to be 64.3 M⁻¹ s⁻¹. Moreover, in series [3], the Km came out at 50 ± 10 µM, the kcat amounted to 1.08 ± 0.0283 s⁻¹ and the kcat/Km is 20700 ± 667 M⁻¹ s⁻¹. In series [4], the Km was found to be 5410 ± 280 µM, the kcat was determined as 0.105 ± 0.005 s⁻¹ and the kcat/Km stood at 19.3 ± 0.5 M⁻¹ s⁻¹.

B2: LdhTi: D-lactate dehydrogenase from Thermodesulfatator indicus DSM 15286, amino acid sequence SEQ ID No. 1, expressed in E. coli and purified (protein)
chain: MKVIFFSMHPYEEEFLGPILPSDWDVEMTPDFLDETTVEKAKGAQVVSLFVSDKADGPVLEALHSYGVGLLALRSAGYDHIDIETAKRLGIKVVNVPAYSPHAIADHTLAIMLALIRRLHRAHDKVRLGDFDLDGLMGFDLNGKVAGVIGLGKIGRLVATRLKAFGCKVLGYDPYIQPEIVENVDLDTLITQADIISIHCPLTRENFHMFNEETFKRMKPGAILVNTARGGLIDTKALLEALKSGKLGGAALDVYEYERGLFFKNHQKEGIKDPYLAQLLGLANVVLTGHQAFLTREAVKNIEETTVENILEWQKNPQAKLKNEI
modifications: Thermodesulfatator indicus DSM 15286
Consider B2, for which the “optimal reaction pH value” in series [5] stood at 6.0. This molecule registered an optimal reaction temperature in series [6] of 70 °C.
